System: NCI-H196 complex spheroid viability
Experiment: Anticancer human tumor NCI-H196 cell line growth inhibition [LSD1];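 also: spheroids exposed to agents for 7 days before readout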;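 as to viability, T/C: 100% = DMSO vehicle control viability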
Conditions: for IC50: curve of first compound; for viability, T/C: stronger effect = lower value
Outline: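 Drug combinations with the LSD1 inhibitor iadademstat tested on tumor cells co-cultured as spheroids with endothelial cells and mesenchymal stem cells. Concentrations descended in half-log increments from clinical Cmax or 10 microM.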

[1] = second compound 0.1 µM, first compound 0.0316 µM
[2] = second compound 0.1 µM, first compound 0.1 µM
[3] = second compound 0.316 µM, first compound 0.0316 µM
[4] = second compound 0.316 µM, first compound 0.1 µM
[5] = second compound 1 µM, first compound 0.0316 µM
[6] = second compound 1 µM, first compound 0.1 µM
[7] = second compound 3.16 µM, first compound 0.0316 µM
[8] = second compound 3.16 µM, first compound 0.1 µM
[9] = second compound 10 µM, first compound 0.0316 µM
[10] = second compound 10 µM, first compound 0.1 µM
[11] = second compound 0.1 µM, first compound 0.000316 µM
[12] = second compound 0.1 µM, first compound 0.001 µM
[13] = second compound 0.1 µM, first compound 0.00316 µM
[14] = second compound 0.1 µM, first compound 0.01 µM
[15] = second compound 0.316 µM, first compound 0.000316 µM
[16] = second compound 0.316 µM, first compound 0.001 µM
[17] = second compound 0.316 µM, first compound 0.00316 µM
[18] = second compound 0.316 µM, first compound 0.01 µM
[19] = second compound 1 µM, first compound 0.000316 µM
[20] = second compound 1 µM, first compound 0.001 µM
[21] = second compound 1 µM, first compound 0.00316 µM
[22] = second compound 1 µM, first compound 0.01 µM
[23] = second compound 3.16 µM, first compound 0.000316 µM
[24] = second compound 3.16 µM, first compound 0.001 µM
[25] = second compound 3.16 µM, first compound 0.00316 µM
[26] = second compound 3.16 µM, first compound 0.01 µM
[27] = second compound 10 µM, first compound 0.000316 µM
[28] = second compound 10 µM, first compound 0.001 µM
[29] = second compound 10 µM, first compound 0.00316 µM
[30] = second compound 10 µM, first compound 0.01 µM

| Structure (SMILES) | IC50 (second compound 0.1 µM) | IC50 (second compound 0.316 µM) | IC50 (second compound 1 µM) | IC50 (second compound 3.16 µM) | IC50 (second compound 10 µM) | viability, T/C [1] | viability, T/C [2] | viability, T/C [3] | viability, T/C [4] | viability, T/C [5] | viability, T/C [6] | viability, T/C [7] | viability, T/C [8] | viability, T/C [9] | viability, T/C [10] | viability, T/C [11] | viability, T/C [12] | viability, T/C [13] | viability, T/C [14] | viability, T/C [15] | other results |
| --- | --- | --- | --- | --- | --- | --- | --- | --- | --- | --- | --- | --- | --- | --- | --- | --- | --- | --- | --- | --- | --- |
| CC1(C)CCC(CN2CCN(c3ccc(C(=O)NS(=O)(=O)c4ccc(NCC5CCOCC5)c([N+](=O)[O-])c4)c(Oc4cnc5[nH]ccc5c4)c3)CC2)=C(c2ccc(Cl)cc2)C1 + NC1CC1c1ccc(-c2cccc(O)c2)cc1 | 5680 nM | 5200 nM | 5540 nM | 5490 nM | 4930 nM | 91.2% | 99.9% | 98.6% | 101% | 94.3% | 97.4% | 96.5% | 105% | 94.9% | 95.6% | – | – | – | – | – | viability, T/C (second compound 0.1 µM, first compound 0.316 µM): 99%; viability, T/C (second compound 0.1 µM, first compound 1 µM): 84.2%; viability, T/C (second compound 0.1 µM, first compound 3.16 µM): 85.7%; viability, T/C (second compound 0.1 µM, first compound 10 µM): 16.9%; viability, T/C (second compound 0.316 µM, first compound 0.316 µM): 87.1%; viability, T/C (second compound 0.316 µM, first compound 1 µM): 84%; viability, T/C (second compound 0.316 µM, first compound 3.16 µM): 79.2%; viability, T/C (second compound 0.316 µM, first compound 10 µM): 16.1%; viability, T/C (second compound 1 µM, first compound 0.316 µM): 95.6%; viability, T/C (second compound 1 µM, first compound 1 µM): 95.7%; viability, T/C (second compound 1 µM, first compound 3.16 µM): 79.2%; viability, T/C (second compound 1 µM, first compound 10 µM): 19%; viability, T/C (second compound 3.16 µM, first compound 0.316 µM): 101%; viability, T/C (second compound 3.16 µM, first compound 1 µM): 84.8%; viability, T/C (second compound 3.16 µM, first compound 3.16 µM): 80.6%; viability, T/C (second compound 3.16 µM, first compound 10 µM): 20%; viability, T/C (second compound 10 µM, first compound 0.316 µM): 97.3%; viability, T/C (second compound 10 µM, first compound 1 µM): 92.1%; viability, T/C (second compound 10 µM, first compound 3.16 µM): 72.5%; viability, T/C (second compound 10 µM, first compound 10 µM): 14.2% |
| CC(C)CC(NC(=O)CNC(=O)c1cc(Cl)ccc1Cl)B1OC(=O)CC(CC(=O)O)(C(=O)O)O1 (stereo not given) + NC1CC1c1ccc(-c2cccc(O)c2)cc1 | 13.6 nM | 13.4 nM | 10.1 nM | 10.5 nM | 10.2 nM | 21.7% | 4.21% | 19% | 4.26% | 17% | 4.69% | 19.2% | 3.44% | 13.4% | 2.91% | 99.7% | 100% | 97.6% | 58.7% | 92.7% | viability, T/C [16]: 99.2%; viability, T/C [17]: 92.8%; viability, T/C [18]: 59.9%; viability, T/C [19]: 97.5%; viability, T/C [20]: 106%; viability, T/C [21]: 93.3%; viability, T/C [22]: 48.8%; viability, T/C [23]: 91%; viability, T/C [24]: 109%; viability, T/C [25]: 89.2%; viability, T/C [26]: 49.3%; viability, T/C [27]: 105%; viability, T/C [28]: 98.8%; viability, T/C [29]: 84.2%; viability, T/C [30]: 52.9% |
| CC[C@@]1(O)C(=O)OCc2c1cc1n(c2=O)Cc2cc3c(CN(C)C)c(O)ccc3nc2-1 + NC1CCC(NC2CC2c2ccccc2)CC1 | > 100 nM | > 100 nM | > 100 nM | > 100 nM | > 100 nM | 115% | 94.1% | 110% | 101% | 98.4% | 93.7% | 111% | 102% | 105% | 95.3% | 96.8% | 96.4% | 103% | 107% | 96% | viability, T/C [16]: 90.2%; viability, T/C [17]: 105%; viability, T/C [18]: 118%; viability, T/C [19]: 89.7%; viability, T/C [20]: 105%; viability, T/C [21]: 98.6%; viability, T/C [22]: 101%; viability, T/C [23]: 88.7%; viability, T/C [24]: 95.3%; viability, T/C [25]: 91%; viability, T/C [26]: 100%; viability, T/C [27]: 94.6%; viability, T/C [28]: 89.7%; viability, T/C [29]: 98%; viability, T/C [30]: 109% |

From PubChem BioAssay AID1918958 (Molecular Pharmacology Branch, DTP, NCI, 2023)
